Results from patent US7858786B2, “Pyrimidines and pyrazines useful as modulators of ion channels” (Vertex Pharmaceuticals Incoropated, priority 2005, dated 2010).
Like-named read-outs stand apart in the source and are kept apart here.

What was measured:
NaV1.8 [1] = target: T1, NaV1.8 (Homo sapiens, UniProt Q9Y5Y9); details: read-out: TTX IC50; cited from earlier work
neuropathic pain = details: modest efficacy; cited from earlier work
NaV1.8 [2] = target: T1, NaV1.8; experiment: Activity against NaV 1.8 channel (NaV inhibition assay); format: cell-based
Experimental: Compounds of the invention are useful as antagonists of voltage-gated sodium ion channels. Antagonist properties of test compounds were assessed as follows. Cells expressing the NaV of interest were placed into microtiter plates. After an incubation period, the cells were stained with fluorescent dyes sensitive to the transmembrane potential. The test compounds were added to the microtiter plate. The cells were stimulated with either a chemical or electrical means to evoke a NaV dependent membrane potential change from unblocked channels, which was detected and measured with trans-membrane potential-sensitive dyes. Antagonists were detected as a decreased membrane potential response to the stimulus. The optical membrane potential assay utilized voltage-sensitive FRET sensors described by Gonzalez and Tsien (See, Gonzalez, J. E. and R. Y. Tsien (1995) “Voltage sensing by fluorescence resonance energy transfer in single cells” Biophys J 69(4):1272-80, and Gonzalez, J. E. and R. Y. Tsien (1997) “Improved indicators of cell membrane potential that use fluorescence resonance energy transfer” Chem Biol 4(4):269-77) in combination with instrumentation for measuring fluorescence changes such as the Voltage/Ion Probe Reader (VIPRO®) (See, Gonzalez, J. E., K. Oades, et al. (1999) “Cell-based assays and instrumentation for screening ion-channel targets” Drug Discov Today 4(9):431-439).
24 hours before the assay on VIPR, CHO cells endogenously expressing a NaV1.2 type voltage-gated NaV are seeded in 96-well poly-lysine coated plates at 60,000 cells per well. Other subtypes are performed in an analogous mode in a cell line expressing the NaV of interest.
The following is an example of how NaV1.3 inhibition activity is measured using the optical membrane potential method #2. Other subtypes are performed in an analogous mode in a cell line expressing the NaV of interest.
HEK293 cells stably expressing NaV1.3 are plated into 96-well microtiter plates. After an appropriate incubation period, the cells are stained with the voltage sensitive dyes CC2-DMPE/DiSBAC2(3) as follows.
Patch clamp electrophysiology was used to assess the efficacy and selectivity of sodium channel blockers in dorsal root ganglion neurons. Rat neurons were isolated from the dorsal root ganglions and maintained in culture for 2 to 10 days in the presence of NGF (50 ng/ml) (culture media consisted of NeurobasalA supplemented with B27, glutamine and antibiotics). Small diameter neurons (nociceptors, 8-12 μm in diameter) have been visually identified and probed with fine tip glass electrodes connected to an amplifier (Axon Instruments). The “voltage clamp” mode has been used to assess the compound's IC50 holding the cells at −60 mV. In addition, the “current clamp” mode has been employed to test the efficacy of the compounds in blocking action potential generation in response to current injections. The results of these experiments have contributed to the definition of the efficacy profile of the compounds.
TTX-resistant sodium currents were recorded from DRG somata using the whole-cell variation of the patch clamp technique. Recordings were made at room temperature (˜22° C.) with thick walled borosilicate glass electrodes (WPI; resistance 3-4 MΩ) using an Axopatch 200B amplifier (Axon Instruments). After establishing the whole-cell configuration, approximately 15 minutes were allowed for the pipette solution to equilibrate within the cell before beginning recording. Currents were lowpass filtered between 2-5 kHz and digitally sampled at 10 kHz. Series resistance was compensated 60-70% and was monitored continuously throughout the experiment. The liquid junction potential (−7 mV) between the intracellular pipette solution and the external recording solution was not accounted for in the data analysis. Test solutions were applied to the cells with a gravity driven fast perfusion system (SF-77; Warner Instruments). […]

T1 sequence (Q9Y5Y9 whole entry, looked up): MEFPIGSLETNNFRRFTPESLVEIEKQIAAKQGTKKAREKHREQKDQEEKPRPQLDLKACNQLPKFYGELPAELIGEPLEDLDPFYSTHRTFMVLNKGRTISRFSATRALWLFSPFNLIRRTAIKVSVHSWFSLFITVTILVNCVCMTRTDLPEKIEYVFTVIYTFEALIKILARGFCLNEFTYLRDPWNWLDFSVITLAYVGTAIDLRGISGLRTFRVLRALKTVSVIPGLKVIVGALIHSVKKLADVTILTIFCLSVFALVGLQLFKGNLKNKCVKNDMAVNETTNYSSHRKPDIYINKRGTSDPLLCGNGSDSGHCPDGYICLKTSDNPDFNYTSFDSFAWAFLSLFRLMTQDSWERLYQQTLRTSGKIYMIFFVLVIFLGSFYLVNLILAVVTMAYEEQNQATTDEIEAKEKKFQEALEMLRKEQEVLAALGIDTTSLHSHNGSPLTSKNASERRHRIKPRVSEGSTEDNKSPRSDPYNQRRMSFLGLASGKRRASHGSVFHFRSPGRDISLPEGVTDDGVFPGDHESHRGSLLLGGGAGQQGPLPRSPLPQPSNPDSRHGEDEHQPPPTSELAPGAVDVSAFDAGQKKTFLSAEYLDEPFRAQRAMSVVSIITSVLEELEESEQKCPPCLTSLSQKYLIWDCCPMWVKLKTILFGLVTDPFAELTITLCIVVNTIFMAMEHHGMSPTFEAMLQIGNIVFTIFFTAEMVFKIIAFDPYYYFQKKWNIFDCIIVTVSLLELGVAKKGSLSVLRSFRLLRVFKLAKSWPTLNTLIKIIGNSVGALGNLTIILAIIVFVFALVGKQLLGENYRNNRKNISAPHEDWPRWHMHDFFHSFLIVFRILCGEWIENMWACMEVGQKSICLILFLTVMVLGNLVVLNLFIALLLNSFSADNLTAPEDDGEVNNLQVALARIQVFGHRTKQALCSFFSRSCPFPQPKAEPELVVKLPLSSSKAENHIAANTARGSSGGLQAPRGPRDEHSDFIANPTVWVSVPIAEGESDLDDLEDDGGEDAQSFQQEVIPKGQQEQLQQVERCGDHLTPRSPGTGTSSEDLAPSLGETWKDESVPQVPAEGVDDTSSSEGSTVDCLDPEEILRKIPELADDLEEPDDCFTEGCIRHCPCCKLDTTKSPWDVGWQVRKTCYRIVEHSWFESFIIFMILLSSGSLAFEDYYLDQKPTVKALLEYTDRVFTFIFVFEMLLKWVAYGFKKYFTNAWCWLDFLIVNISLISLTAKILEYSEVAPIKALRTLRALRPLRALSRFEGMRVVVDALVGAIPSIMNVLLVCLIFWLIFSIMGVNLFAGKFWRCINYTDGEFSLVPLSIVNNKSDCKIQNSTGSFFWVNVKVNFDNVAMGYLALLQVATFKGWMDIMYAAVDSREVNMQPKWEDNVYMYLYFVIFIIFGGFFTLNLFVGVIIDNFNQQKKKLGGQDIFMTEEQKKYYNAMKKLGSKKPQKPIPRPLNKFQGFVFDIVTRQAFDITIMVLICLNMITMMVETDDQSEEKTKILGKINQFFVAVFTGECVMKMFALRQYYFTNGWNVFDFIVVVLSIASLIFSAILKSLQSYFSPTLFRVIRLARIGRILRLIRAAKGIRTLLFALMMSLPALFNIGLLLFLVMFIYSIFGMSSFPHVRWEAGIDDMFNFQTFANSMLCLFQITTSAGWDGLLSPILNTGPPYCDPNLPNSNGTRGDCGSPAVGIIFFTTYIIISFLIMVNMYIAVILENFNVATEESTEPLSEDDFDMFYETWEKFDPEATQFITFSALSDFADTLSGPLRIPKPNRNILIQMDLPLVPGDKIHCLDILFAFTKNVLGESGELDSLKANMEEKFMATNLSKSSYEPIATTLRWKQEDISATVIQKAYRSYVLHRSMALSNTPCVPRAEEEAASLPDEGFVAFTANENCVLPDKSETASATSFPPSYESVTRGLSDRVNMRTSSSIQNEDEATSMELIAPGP

Row | Compound | IC50 (NaV1.8 [2]) [µM] | also measured
1 | NC1=N[C@H](O)[C@H]2[C@H]3O[C@]4(O)O[C@@H]([C@@H](O)[C@@]2(N1)[C@@H]4O)[C@]3(O)CO [TTX, tetrodotoxin] | – | IC50 (NaV1.8 [1]): > 50 µM
2 | NCC1(CC(=O)O)CCCCC1 [Gabapentin] | – | patients in which it works (neuropathic pain): 60%
3 | COCCOC(=O)N[C@H]1CCN(c2cncc(-c3ccccc3C(F)F)n2)C1 [Compound 11, [1-[6-[2-(difluoromethyl)phenyl]pyrazin-2-yl]pyrrolidin-3-yl]aminoformic acid 2-methoxyethyl ester] | > 15 | –
4 | CC(C)COC(=O)NC1CCN(c2nccc(-c3ccccc3C(F)F)n2)CC1 [Compound 31, [1-[4-[2-(difluoromethyl)phenyl]pyrimidin-2-yl]-4-piperidyl]aminoformic acid isobutyl ester] | < 10 | –
5 | CC(C)C[C@@H](O)C(=O)N1CCN(c2cc(-c3ccccc3O)ncn2)CC1 [Compound 26, 2-hydroxy-1-[4-[6-(2-hydroxyphenyl)pyrimidin-4-yl]piperazin-1-yl]-4-methyl-pentan-1-one] | > 15 | –
6 | CC(C)(C)OC(=O)NC1CCN(c2cncc(-c3ccccc3O)n2)CC1 [Compound 52, [1-[6-(2-hydroxyphenyl)pyrazin-2-yl]-4-piperidyl]aminoformic acid tert-butyl ester] | < 10 | –
7 | CC(C)COC(=O)NC1CCN(c2ccnc(-c3ccccc3C(F)F)n2)CC1 [Compound 13, [1-[2-[2-(difluoromethyl)phenyl]pyrimidin-4-yl]-4-piperidyl]aminoformic acid isobutyl ester] | < 10 | –
8 | CC(C)COC(=O)N[C@H]1CCN(c2cncc(-c3ccccc3C(F)F)n2)C1 [Compound 36, [1-[6-[2-(difluoromethyl)phenyl]pyrazin-2-yl]pyrrolidin-3-yl]aminoformic acid isobutyl ester] | < 10 | –
9 | COCCOC(=O)NC1CCN(c2cncc(-c3ccccc3O)n2)CC1 [Compound 47, [1-[6-(2-hydroxyphenyl)pyrazin-2-yl]-4-piperidyl]aminoformic acid 2-methoxyethyl ester] | > 15 | –
10 | CC(C)COC(=O)N1CCN(c2ccnc(-c3ccccc3O)n2)CC1 [Compound 34, 4-[2-(2-hydroxyphenyl)pyrimidin-4-yl]piperazine-1-carboxylic acid isobutyl ester] | > 15 | –
11 | COCCOC(=O)N[C@@H]1CCN(c2cncc(-c3ccccc3O)n2)C1 [Compound 16, [1-[6-(2-hydroxyphenyl)pyrazin-2-yl]pyrrolidin-3-yl]aminoformic acid 2-methoxyethyl ester] | > 15 | –
12 | CC(C)C[C@@H](O)C(=O)N1CCN(c2cc(-c3ccccc3F)ncn2)CC1 [Compound 44, 1-[4-[6-(2-fluorophenyl)pyrimidin-4-yl]piperazin-1-yl]-2-hydroxy-4-methyl-pentan-1-one] | > 15 | –
13 | CC(C)COC(=O)N1CCN(c2cc(-c3ccccc3F)ncn2)CC1 [Compound 23, 4-[6-(2-fluorophenyl)pyrimidin-4-yl]piperazine-1-carboxylic acid isobutyl ester] | > 15 | –
14 | CC(C)COC(=O)N1CCN(c2cncc(-c3ccccc3F)n2)CC1 [Compound 46, 4-[6-(2-fluorophenyl)pyrazin-2-yl]piperazine-1-carboxylic acid isobutyl ester] | > 15 | –
15 | CC(C)COC(=O)N1CCN(c2ccnc(-c3ccccc3F)n2)CC1 [Compound 10, 4-[2-(2-fluorophenyl)pyrimidin-4-yl]piperazine-1-carboxylic acid isobutyl ester] | > 15 | –
16 | CC(C)COC(=O)NC1CCN(c2ccnc(-c3ccccc3O)n2)CC1 [Compound 35, [1-[2-(2-hydroxyphenyl)pyrimidin-4-yl]-4-piperidyl]aminoformic acid isobutyl ester] | 10 to 15 | –
17 | CC(C)C[C@@H](O)C(=O)N1CCN(c2cncc(-c3ccccc3O)n2)CC1 [Compound 38, 2-hydroxy-1-[4-[6-(2-hydroxyphenyl)pyrazin-2-yl]piperazin-1-yl]-4-methyl-pentan-1-one] | > 15 | –
18 | CC(C)OC(=O)N[C@@H]1CCN(c2cncc(-c3ccccc3O)n2)C1 [Compound 41, [1-[6-(2-hydroxyphenyl)pyrazin-2-yl]pyrrolidin-3-yl]aminoformic acid isopropyl ester] | > 15 | –
19 | CC(C)COC(=O)N1CCN(c2cncc(-c3ccccc3C(F)F)n2)CC1 [Compound 15, 4-[6-[2-(difluoromethyl)phenyl]pyrazin-2-yl]piperazine-1-carboxylic acid isobutyl ester] | 10 to 15 | –
